How the values were obtained:
[1] = test system: Acinetobacter baumannii (A. baumannii) 2208 ATCC19606; assay: CFU measuring assay / MBC calculation; format: cell-based; settings: 90 min at 37° C., linear regression, mean ± s.d.
Description: (§1) For the CFU measuring assay, 50 μL of different concentrations of Se NPs, Se NP-ε-PL or pure ε-PL in PBS solution was added into each well of 96-well microplates, then 50 μL MHB with 2.5×10^6 cells/mL bacteria were added into each well. After incubating the microplate at 37° C. for 90 min, the bacterial solutions were diluted 10^−1, 10^−2, 10^−3 and 10^−4 times, then 10 μL of each dilution was transferred onto agar plates with MHB. The agar plates were incubated overnight, before the bacterial colony forming units were observed and measured.
(§2) Concentration-killing curves were plotted with CFUs/mL as a function of antibacterial agent concentration, and linear regression analysis was used to determine the lowest concentration (MBC) at which the CFU/mL becomes zero.

[2] = test system: Enterococcus faecalis (E. faecalis) ATCC 29212; assay: CFU measuring assay / MBC calculation; format: cell-based; settings: 90 min at 37° C., linear regression, mean ± s.d.
Description: as §1, §2

[3] = test system: Escherichia coli (E. coli) ATCC 25922; assay: CFU measuring assay / MBC calculation; format: cell-based; settings: 90 min at 37° C., linear regression, mean ± s.d.
Description: as §1, §2

[4] = test system: Klebsiella pneumoniae (K. pneumoniae) ATCC 13883; assay: CFU measuring assay / MBC calculation; format: cell-based; settings: 90 min at 37° C., linear regression, mean ± s.d.
Description: as §1, §2

[5] = test system: Pseudomonas aeruginosa (P. aeruginosa) strain PAO1-LAC ATCC 47085; assay: CFU measuring assay / MBC calculation; format: cell-based; settings: 90 min at 37° C., linear regression, mean ± s.d.
Description: as §1, §2

[6] = test system: methicillin-resistant Staphylococcus aureus (MRSA) ATCC 43300; assay: CFU measuring assay / MBC calculation; format: cell-based; settings: 90 min at 37° C., linear regression, mean ± s.d.
Description: as §1, §2

[7] = test system: methicillin-sensitive Staphylococcus aureus (S. aureus) ATCC 29213; assay: CFU measuring assay / MBC calculation; format: cell-based; settings: 90 min at 37° C., linear regression, mean ± s.d.
Description: as §1, §2

E. coli ATCC 25922 = assay: Adenosine triphosphate (ATP) test (BacTiter-Glo); format: cell-based, Escherichia coli; settings: 1 h at 37° C.
Description: The bacterial strains methicillin-sensitive S. aureus ATCC 29213, E. faecalis ATCC 29212, E. coli ATCC 25922 and K. pneumoniae ATCC 13883 were cultured in MHB at 37° C. 50 μL of Se NPs, Se NP-ε-PL or pure ε-PL in PBS solution was added into each well of 96-well microplates. 50 μL MHB with 2.5×10^6 cells/mL bacteria was then added into each well. After 1h incubation at 37° C., the 96-well microplates were transferred to room temperature for a further 30 min incubation period. 100 μL of BacTiter-Glo™ reagent (Promega, Australia) was added into each well, then mixed on an orbital shaker and incubated for 5 min. The luminescence was recorded using a microplate reader (PerkinElmer 1420 Multilabel Counter VICTOR3).
A standard curve was generated by adopting the following steps. 10-fold serial dilutions of ATP from 1 μM to 10 pM in 100 μL MHB were prepared. 100 μL of BacTiter-Glo™ reagent was added into each well, then mixed on an orbital shaker and incubated for 1 min. The luminescence was recorded using a microplate reader (PerkinElmer 1420 Multilabel Counter VICTOR3).

E. faecalis ATCC 29212 [8] = assay: ROS production test (CellROX Orange, flow cytometry); format: cell-based, Enterococcus faecalis; settings: 6.25 or 12.5 μg/ml
Description: The bacterial strains methicillin-sensitive S. aureus (MSSA) ATCC 29213, E. faecalis ATCC 29212, E. coli ATCC 25922 were cultured in MHB at 37° C. 50 μL of different concentration of Se NPs, Se NP-ε-PL or pure ε-PL in PBS solution was added into each well of a 96-well microplate. 50 μL MHB with 2.5×10^6 cells/mL bacteria was then added into each well. After 90 min incubation at 37° C., CellROX® Orange Reagent was added into each well at a final concentration of 750 nM. The cells were incubated for a further 1 h. The fluorescence from the CellROX Orange Reagent was measured on FL-3 (red fluorescence channel) using the Cell Lab Quanta SC MPL flow cytometer (Beckman Coulter). Two independent experiments were done for this test, and two technical replicates were adopted for each independent experiment.

[9] = test system: methicillin-sensitive S. aureus (MSSA) ATCC 29213; assay: Membrane potential change test (BacLight, DiOC2(3)); format: cell-based, Staphylococcus aureus; settings: 6.25 or 12.5 μg/ml
Description: Membrane potential change was measured using a BacLight Bacterial Membrane Potential Kit (Invitrogen). The bacterial strain methicillin-sensitive S. aureus (MSSA) ATCC 29213, E. faecalis ATCC 29212, E. coli ATCC 25922 were cultured in MHB at 37° C. 50 μL of different concentrations of Se NPs, Se NP-ε-PL or pure ε-PL in PBS solution was added into each well of 96-well microplates. 50 μL MHB with 2.5×10^6 cells/mL bacteria was then added into each well. 50 μL MHB with 2.5×10^6 cells/mL bacteria was added to 50 μL PBS to act as untreated control. Carbonyl cyanide 3-chlorophenylhydrazone (CCCP) was added to untreated control at a final concentration of 5 μM to act as fully depolarized control. 3,3′-Diethyloxacarbocyanine Iodide (DiOC2(3)) was added to all wells at a final concentration of […]. […] The untreated (polarized) and CCCP-treated (fully depolarized) controls were used to determine the percentage of depolarized cells. Two independent experiments were done for this test, and two technical replicates were adopted for each independent experiment.

E. faecalis ATCC 29212 [10] = assay: Helium ion microscopy (HIM) of treated bacteria; format: cell-based, Enterococcus faecalis; settings: 90 min incubation
Description: (§3) The morphologies of bacterial strains methicillin-sensitive S. aureus (MSSA) ATCC 29213, E. faecalis ATCC 29212, E. coli ATCC 25922, A. baumannii 2208 ATCC19606 and K. pneumoniae ATCC 13883 after treatment with Se NPs, Se NP-ε-PL or pure ε-PL were observed using Helium Ion Microscopy (HIM, Zeiss, Germany). The samples were prepared in the following steps. First, 100 μL of 125 μg/mL Se NPs, Se NP-ε-PL or pure ε-PL in PBS solution was added to each well of 96-well microplates, 100 μL pure PBS was used as untreated control. Afterwards, 100 μL MHB with 1.25×10^7/mL bacteria was added to each well. After 90 min incubation, 10 μL of both treated and untreated bacteria was dropped on clean silicon wafers, and they were then dried at 37° C. for 20 min. The dried samples were transferred to a 12-well plate, 2.5% glutaraldehyde was added to each well to fix the bacteria cells for 1 h, then gradient ethanol solution (30%, 50%, 60%, 70%, 80%, 90%, 95% and 100%) was used for dehydration. The prepared samples were dried in the fume hood overnight before use.

[11] = test system: Gram-negative cells (E. coli, A. baumannii and K. pneumoniae); assay: Helium ion microscopy (HIM) of treated bacteria; format: cell-based; settings: 90 min incubation
Description: as §3

Substance: ε-poly-L-lysine [ε-PL]
- MBC [1]: 50.0 ± 0.2 mg/L
- MBC [2]: 134 ± 10 mg/L
- MBC [3]: 24.3 ± 1.2 mg/L
- MBC [4]: 12.9 ± 0.4 mg/L
- MBC [5]: 25.0 ± 0.1 mg/L
- MBC [6]: 149 ± 37 mg/L
- MBC [7]: 50.6 ± 3.5 mg/L
- ATP depletion (E. coli ATCC 25922): higher ATP depletion effect than Se NPs
- ROS production (high ROS production cells) (E. faecalis ATCC 29212 [8]): almost no promoting effects on ROS production
- depolarisation of cell membrane [9]: depolarized cell membranes
- cell morphology after treatment (HIM) (E. faecalis ATCC 29212 [10]): some were dead and distorted
- cell morphology after treatment (HIM) [11]: membranes of E. coli, A. baumannii and K. pneumoniae cells were disrupted

— patent US20220339187A1, “ANTIMICROBIAL PEPTIDE-SELENIUM NANOPARTICLES” (The University of Melbourne, priority 2019, published 2022)
